Patent US20260256751A1, “COMBINATION OF BETA-2-ADRENERGIC RECEPTOR AGONISTS AND GLP-1 RECEPTOR AGONISTS FOR USE IN TREATING HYPERGLYCAEMIA” (ATROGI AB, priority 2023, published 2026)

Experiments:
[1] = system: differentiated L6-myotubes; test: Glucose uptake screen (Biological example 1 of WO 2019/053427); format: cell-based; settings: compound at 10 μM, activity relative to isoproterenol at 10 μM, read-out: Biological example 1 of WO 2019/053427 (GU)
In short: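 Rat L6 myoblasts were differentiated into myotubes over 7 days in 2% FBS, then serum-starved overnight. Cells were stimulated with 1×10^−5 M compound plus β2 antagonist ICI-118551 for 1 h 40 min and re-dosed for 20 min in glucose-free medium. Uptake of 50 nM ^3H-2-deoxyglucose over 10 min was counted after NaOH lysis.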

[2] = system: differentiated L6-myotubes; test: cAMP production relative to isoprenaline (Biological example 2 of WO 2019/053427); format: cell-based; settings: 0.25 h, compound at 10 μM, activity relative to isoproterenol at 10 μM
In short: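 Differentiated L6 myotubes stimulated 15 min with test compound or isoprenaline, each at final 1×10^−5 M, in HBSS with 1% BSA, 5 mM HEPES, 1 mM IBMX, pH 7.4. cAMP production by the compound expressed relative to that induced by the same concentration of isoprenaline.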

Compound	Emax at 10 µM [1] [%]	Emax at 10 µM [2] [%]
CC1(C)C[C@H]([C@H](O)c2ccccc2F)N1 [Compound 204, (R)-[(R)-4,4-dimethyl-2-azetidinyl](o-fluorophenyl)methanol]	> 75	25 to 50
CC1(C)CC[C@H]([C@@H](O)c2cccc(O)c2)N1 [Compound 111, m-{(S)-[(R)-5,5-dimethyl-2-pyrrolidinyl]hydroxymeth-yl}phenol]	50 to 75	< 25
CC1(C)CCC[C@H]([C@H](O)c2cccc(F)c2)N1 [Compound 102, (R)-[(R)-6,6-dimethyl-2-piperidyl](m-fluorophenyl)methanol]	50 to 75	< 25
CCCC(C)NCC(O)c1cccc(O)c1 (stereo not drawn) [Compound 14, 1-(m-hydroxyphenyl)-2-(1-methylbutylamino)-1-ethanol]	> 75	< 25
CCCC(C)NCC(O)c1cc(Cl)c(N)c(Cl)c1 (stereo not drawn) [Compound 22, 1-(4-amino-3,5-dichlorophenyl)-2-(1-methylbutylamino)-1-ethanol]	> 75	50 to 75
CC1(C)CC[C@H]([C@H](O)c2cccc(N)c2F)N1 [Compound 227, (R)-[(R)-5,5-dimethyl-2-pyrrolidinyl](3-amino-2-fluorophenyl)methanol]	> 75	< 25
CO[C@@H]1CCC[C@H](C(C)(C)NC[C@H](O)c2cccc(F)c2)C1 [Compound 255, (R)-2-{1-[(1S,3R)-3-methoxycyclohexyl]-1-methylethylamino}-1-(m-fluorophenyl)-1-ethanol]	> 75	< 25
CCCCNCC(O)c1ccncc1 (stereo not drawn) [Compound 48, 2-(butylamino)-1-(4-pyridyl)-1-ethanol]	25 to 50	< 25
CC(=O)N[C@H]1CC[C@@H](C[C@@H]2CC[C@H]([C@H](O)c3cccc(F)c3)N2)CC1 [Compound 484, N-[(1R,4s)-4-({(2S,5R)-5-[(R)-(m-fluorophenyl)hydroxymethyl]-2-pyrrolidinyl}methyl)cyclohexyl]acetamide]	50 to 75	< 25
CO[C@H]1CC[C@@H](CNC[C@H](O)c2cccc(F)c2)CC1 [Compound 245, (R)-1-(m-fluorophenyl)-2-({[(1s,4S)-4-methoxycyclohexyl]meth-yl}amino)-1-ethanol]	50 to 75	< 25
CC(=O)N[C@H]1CC[C@H](CNC[C@H](O)c2cccc(F)c2)CC1 [Compound 308, N-[(1R,4r)-4-{[(R)-2-(m-fluorophenyl)-2-hydroxyethylamino]methyl}cyclohexyl]acetamide]	50 to 75	< 25
CCCCNC[C@H](O)c1ccc(F)c(O)c1 [Compound 85, (R)-2-(butylamino)-1-(4-fluoro-3-hydroxyphenyl)-1-ethanol]	> 75	< 25
CC(C)(NC[C@H](O)c1cccc(F)c1)[C@H]1CC[C@H](OCc2ccccc2)CC1 [Compound 279, (R)-1-(m-fluorophenyl)-2-{1-methyl-1-[(1r,4R)-4-(benzyloxy)cyclohexyl]eth-ylamino}-1-ethanol]	50 to 75	< 25
COc1ccc(C[C@@H]2CC[C@H]([C@H](O)c3cccc(F)c3)N2)cc1 [Compound 373, (R)-{(2R,5S)-5-[(p-methoxyphenyl)methyl]-2-pyrrolidinyl}(m-fluorophenyl)methanol]	> 75	25 to 50
CC(C)(C[C@H]1CC[C@H](N)CC1)NC[C@H](O)c1cncc(F)c1 [Compound 359, (R)-2-{1,1-dimethyl-2-[(1r,4R)-4-aminocyclohexyl]ethylamino}-1-(5-fluoro-3-pyridyl)-1-ethanol]	> 75	< 25
Oc1ccc(C(O)CNCCCC2CCCCC2)cc1 (stereo not drawn) [Compound 21, 2-(3-cyclohexylpropylamino)-1-(p-hydroxyphenyl)-1-ethanol]	> 75	< 25
CC(=O)N[C@H]1CC[C@H](CCC(C)(C)NC[C@H](O)c2cncc(F)c2)CC1 [Compound 361, N-[(1R,4r)-4-{3-[(R)-2-(5-fluoro-3-pyridyl)-2-hydroxyethylamino]-3-methlbutyl}cyclohexyl]acetamide]	> 75	< 25
COCC12CCC([C@H](O)c3cccc(F)c3)(CC1)N2 [Compound 330, (R)-(m-fluorophenyl){4-(methoxymethyl)-7-azabicyclo[2.2.1]hept-1-yl}methanol]	> 75	< 25

Compound	Emax at 10 µM [1] [%]	Emax at 10 µM [2] [%]
COc1ccc(CCC23CCC([C@@H](O)c4cncc(F)c4)(CC2)N3)cc1 [Compound 541, (S)-(5-fluoro-3-pyridyl){4-[2-(p-methoxyphenyl)ethyl]-7-azabicyclo[2.2.1]hept-1-yl}methanol]	< 25	< 25
CC1(C)CC[C@H]([C@@H](O)c2cncc(F)c2)N1 [Compound 156, (S)-[(R)-5,5-dimethyl-2-pyrrolidinyl](5-fluoro-3-pyridyl)methanol]	< 25	< 25
O[C@@H](c1cccc(F)c1)C12CCC(COc3ccc(Cl)cc3)(CC1)N2 [Compound 440, (S)-{4-[(p-chlorophenoxy)methyl]-7-azabicyclo[2.2.1]hept-1-yl}(m-fluorophenyl)methanol]	> 75	< 25
CO[C@H]1CCC[C@@H](C(C)(C)NC[C@H](O)c2cccc(F)c2)C1 [Compound 256]	> 75	25 to 50
CCC[C@H]1CCC[C@@H]([C@H](O)c2cccc(F)c2)N1 [Compound 120, (R)-[(2S,6S)-6-propyl-2-piperidyl](m-fluorophenyl)methanol]	50 to 75	< 25
CC(C)(C[C@H]1CC[C@@H](NC(=O)C2CCC2)CC1)NC[C@H](O)c1cccc(F)c1 [Compound 448, N-[(1S,4s)-4-{2-[(R)-2-(m-fluorophenyl)-2-hydroxyethylamino]-2-methylpropyl}cyclohexyl]cyclobutanecarboxamide]	50 to 75	< 25
O[C@@H](c1cccc(F)c1)C12CCC(Cc3ccc(OC(F)(F)F)cc3)(CC1)N2 [Compound 500]	< 25	< 25
CCC[C@@H]1CCCC[C@H]([C@H](O)c2cncc(F)c2)N1 [Compound 219, (R)-[(2R,7R)-7-propyl-2-azepanyl](5-fluoro-3-pyridyl)methanol]	< 25	< 25
CN([C@H]1CC[C@@H](CC(C)(C)NC[C@H](O)c2cncc(F)c2)CC1)S(C)(=O)=O [Compound 520, (R)-2-{1,1-dimethyl-2-[(1s,4S)-4-(N-mesyl-N-methylamino)cyclohexyl]ethylamino}-1-(5-fluoro-3-pyridyl)-1-ethanol]	50 to 75	< 25
CC(C)(CC[C@H]1CC[C@@H](C(=O)O)CC1)NC[C@H](O)c1cncc(F)c1 [Compound 347, (1S,4s)-4-{3-[(R)-2-(5-fluoro-3-pyridyl)-2-hydroxyethylamino]-3-methylbutyl}cyclohexanecarboxylic acid]	> 75	< 25
CC(=O)N[C@H]1CC[C@@H](CNC[C@H](O)c2cccc(F)c2)CC1 [Compound 307, N-[(1S,4s)-4-{[(R)-2-(m-fluorophenyl)-2-hydroxyethylamino]methyl}cyclohexyl]acetamide]	50 to 75	< 25
CN(C)C(=O)N[C@H]1CC[C@@H](CC(C)(C)NC[C@H](O)c2cccc(F)c2)CC1 [Compound 457, (R)-2-{1,1-dimethyl-2-[(1s,4S)-4-(3,3-dimethylureido)cyclohexyl]ethylamino}-1-(m-fluorophenyl)-1-ethanol]	> 75	25 to 50
CCCCNC[C@H](O)c1cnc(NC(=O)C(C)C)nc1 [Compound 88, N-{5-[(R)-2-(butylamino)-1-hydroxyethyl]-2-pyrimidinyl}2-methylpropionamide]	50 to 75	< 25
CO[C@H]1CC[C@H](C[C@H]2CC[C@H]([C@H](O)c3cccc(F)c3)N2)CC1 [Compound 335, (R)-[(2R,5R)-5-{[(1r,4R)-4-methoxycyclohexyl]methyl}-2-pyrrolidinyl](m-fluorophenyl)methanol]	> 75	< 25
COc1ccc(CCC23CCC([C@@H](O)c4cccc(F)c4)(CC2)N3)cc1 [Compound 539, (S)-(m-fluorophenyl){4-[2-(p-methoxyphenyl)ethyl]-7-azabicyclo[2.2.1]hept-1-yl}methanol]	< 25	< 25
CC1(C)C[C@@H]([C@H](O)c2cccc(Cl)c2)N1 [Compound 232, (R)-[(S)-4,4-dimethyl-2-azetidinyl](m-chlorophenyl)methanol]	25 to 50	< 25
CO[C@H]1CC[C@H](C(C)(C)NC[C@H](O)c2cccc(F)c2)CC1 [Compound 239, (R)-1-(m-fluorophenyl)-2-{1-methyl-1-[(1r,4R)-4-methoxycyclohexyl]ethyl-amino}-1-ethanol]	> 75	< 25
O[C@@H](CNCCC[C@H]1CC[C@H](O)CC1)c1cncc(F)c1 [Compound 305, (R)-1-(5-fluoro-3-pyridyl)-2-{3-[(1r,4S)-4-hydroxycyclohexyl]propylamino}-1-ethanol]	25 to 50	< 25
